How the values were obtained:
MMP-9 [1] = test: Substrate phage display with NGS: relative probability (RP) of P3-P1' tetramer clusters; assay type: biochemical, human; conditions: MMP9; RP of the substrate's P3-P1' tetramer, substrate phage display with NGS;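 further: ratio of tetramer probability after protease selection to that in naive phage library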
MMP-2 = molecular target: T1, MMP-2 (Homo sapiens, UniProt P08253); test: K(obs) of individual phage substrates (set of 1369); assay type: biochemical; conditions: MMP2; individual phage substrate from the set of 1369 peptides; hyphen in the sequence marks the cleavage position
T1 sequence (P08253 110-660): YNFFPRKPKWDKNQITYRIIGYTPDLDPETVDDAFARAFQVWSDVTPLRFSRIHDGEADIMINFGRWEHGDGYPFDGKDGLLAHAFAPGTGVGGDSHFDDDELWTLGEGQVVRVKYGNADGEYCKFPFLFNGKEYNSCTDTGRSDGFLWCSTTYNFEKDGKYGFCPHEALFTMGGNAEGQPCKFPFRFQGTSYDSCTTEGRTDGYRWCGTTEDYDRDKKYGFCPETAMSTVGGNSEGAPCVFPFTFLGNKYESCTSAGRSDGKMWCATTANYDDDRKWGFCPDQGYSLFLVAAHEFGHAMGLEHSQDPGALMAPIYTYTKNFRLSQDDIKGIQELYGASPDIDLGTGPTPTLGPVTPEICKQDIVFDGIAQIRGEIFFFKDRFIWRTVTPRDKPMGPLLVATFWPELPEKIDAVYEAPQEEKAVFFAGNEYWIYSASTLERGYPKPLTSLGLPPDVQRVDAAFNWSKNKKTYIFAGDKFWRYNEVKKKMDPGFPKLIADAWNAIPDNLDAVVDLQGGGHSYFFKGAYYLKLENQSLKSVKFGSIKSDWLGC

MMP-9 [2] = molecular target: MMP-9 (Homo sapiens, UniProt P14780); test: as above; assay type: biochemical; conditions: MMP9; individual phage substrate of the set of 1369 peptides; dash in sequence marks cleavage position
Sequence of MMP-9 (Homo sapiens, UniProt P14780) (P14780 94-707): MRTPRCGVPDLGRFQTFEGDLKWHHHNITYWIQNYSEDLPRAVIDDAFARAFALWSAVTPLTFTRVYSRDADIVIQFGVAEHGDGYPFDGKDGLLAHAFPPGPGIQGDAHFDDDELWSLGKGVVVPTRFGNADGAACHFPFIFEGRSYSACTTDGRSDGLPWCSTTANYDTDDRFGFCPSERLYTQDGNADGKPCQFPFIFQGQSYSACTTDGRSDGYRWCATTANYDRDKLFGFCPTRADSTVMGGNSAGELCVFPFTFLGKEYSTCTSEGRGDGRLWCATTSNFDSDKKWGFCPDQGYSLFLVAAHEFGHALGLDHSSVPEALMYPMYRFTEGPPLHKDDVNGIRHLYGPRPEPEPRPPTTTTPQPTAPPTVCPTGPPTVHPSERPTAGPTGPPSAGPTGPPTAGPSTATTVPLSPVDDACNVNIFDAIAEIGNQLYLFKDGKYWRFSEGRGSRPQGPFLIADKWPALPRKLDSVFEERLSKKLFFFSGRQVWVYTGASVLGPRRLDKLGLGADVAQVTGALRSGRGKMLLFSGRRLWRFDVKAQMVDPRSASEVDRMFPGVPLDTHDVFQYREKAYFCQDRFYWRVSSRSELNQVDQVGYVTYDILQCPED

Row | Substance | relative probability (RP) (MMP-9 [1]) | Kobs (MMP-2) [M⁻¹ s⁻¹] | Kobs (MMP-9 [2]) [M⁻¹ s⁻¹]
1 | SGPSH-WIGTA | 19.8718 | 12792.1 | 7015.91
2 | SGPRG-MKTTA | 47.6962 | 1418.96 | 7815.03
3 | SGVRD-LYFTA | 30.416 | 1030.73 | 2916.17
4 | TLIRY-LTASG | 33.2843 | 10866.7 | 12792.1
5 | WQVRY-LTASG | 32.3577 | 12792.1 | 12792.1
6 | VKPSG-VTASG | 31.8733 | 12792.1 | 12792.1
7 | VGPAF-LTASG | 38.454 | 12792.1 | 12792.1
8 | EHPGL-LTASG | 19.6268 | 2996.69 | 113.394
9 | EAIGR-LTASG | 4.541 | 12792.1 | 517.582
10 | ESIRG-LTASG | 41.2198 | 12792.1 | 6688.74
11 | MGPWG-MTASG | 49.8335 | 4335.13 | 12792.1
12 | GSGRG-LWSET | 11.4523 | 799.117 | 1373.05
13 | GLPAA-LTTAS | 47.6262 | 12792.1 | 12792.1
14 | GRPSA-MTTAS | 46.4881 | 3741.87 | 9740.44
15 | TVLGN-LTASG | 10.3813 | 12792.1 | 690.17
16 | ATLAA-LTASG | 6.32 | 12792.1 | 0
17 | KHPYK-YTASG | 33.5853 | 1816.46 | 12792.1
18 | SVLSK-LTASG | 0.5605 | 12792.1 | 0

Row | Substance | relative probability (RP) (MMP-9 [1]) | Kobs (MMP-2) [M⁻¹ s⁻¹] | Kobs (MMP-9 [2]) [M⁻¹ s⁻¹]
19 | RDMSY-LTASG | 0.7522 | 4335.13 | 0
20 | SGVRW-STSTA | 18.5117 | 1071.29 | 7015.91
21 | KDPKF-LTASG | 42.7484 | 4613.14 | 10866.7
22 | KQLAS-LTASG | 2.45 | 12792.1 | 690.17
23 | GRPSP-FWTAS | 37.3217 | 12792.1 | 3850.82
24 | RGPSS-YTASG | 41.6306 | 12792.1 | 12792.1
25 | SGPSA-LDATA | 47.6113 | 5269.78 | 799.117
26 | WAINA-LTASG | 1.369 | 4922.1 | 551.253
27 | KRVYL-LTASG | 2.817 | 484.315 | 2687.73
28 | CAPTA-LTASG | 40.9775 | 12792.1 | 10866.7
29 | RRPSA-LTASG | 47.6113 | 12792.1 | 10866.7
30 | STIAH-YTASG | 10.3185 | 12792.1 | 451.441
31 | FVVRL-LTASG | 11.0035 | 2615.58 | 2615.58
32 | VLLGN-FTASG | 0.6963 | 12792.1 | 690.17
33 | SGPWA-ITGTA | 50.8721 | 12792.1 | 12792.1
34 | SGPVA-MTKTA | 44.6624 | 1418.96 | 6396.07
35 | KFPAS-LTASG | 46.2982 | 12792.1 | 12792.1

Source: publication PMC7932537, “Quantitative profiling of protease specificity” (PLoS Computational Biology, 2021)
